{
  "source": "ChEMBL document CHEMBL1201862",
  "about": "“PubChem BioAssay data set” (2004)",
  "key": {"[1]": {"experiment": "cytotoxicity toward NIH3T3 fibroblasts, dose response, counter-screen, cell-based, ATP luminescence, mouse fibroblasts (AID 2010);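 also: cells exposed to compound for about 90 hours before reading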", "format": "functional"}, "[2]": {"target": "ATP-dependent molecular chaperone HSP82 (Candida albicans (strain WO-1) (Yeast), UniProt C4YTQ8)", "sequence (C4YTQ8 whole entry)": "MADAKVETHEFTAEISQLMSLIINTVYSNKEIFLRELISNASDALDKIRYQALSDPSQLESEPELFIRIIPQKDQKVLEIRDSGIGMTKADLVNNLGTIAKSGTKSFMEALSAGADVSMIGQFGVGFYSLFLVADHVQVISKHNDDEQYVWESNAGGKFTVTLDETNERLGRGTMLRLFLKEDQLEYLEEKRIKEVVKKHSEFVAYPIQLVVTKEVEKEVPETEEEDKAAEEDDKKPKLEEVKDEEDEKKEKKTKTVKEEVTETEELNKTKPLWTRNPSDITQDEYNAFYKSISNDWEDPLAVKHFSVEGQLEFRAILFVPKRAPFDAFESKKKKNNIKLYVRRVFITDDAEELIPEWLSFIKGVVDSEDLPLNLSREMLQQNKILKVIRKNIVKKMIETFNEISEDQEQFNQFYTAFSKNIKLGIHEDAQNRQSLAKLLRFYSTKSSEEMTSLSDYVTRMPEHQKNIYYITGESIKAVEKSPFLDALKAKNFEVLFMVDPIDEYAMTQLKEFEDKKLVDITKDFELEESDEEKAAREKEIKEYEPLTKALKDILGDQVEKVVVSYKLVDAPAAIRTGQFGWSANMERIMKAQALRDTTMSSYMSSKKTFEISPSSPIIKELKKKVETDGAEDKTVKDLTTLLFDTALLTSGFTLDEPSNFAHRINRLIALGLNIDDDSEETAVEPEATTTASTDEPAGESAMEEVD", "experiment": "loss of DOC-induced GRE-beta-galactosidase reporter signal, dose response, Hsp90 inhibitor project, S. cerevisiae, luminescence (AID 2400);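 also: beta-galactosidase luminescence from glucocorticoid response element reporter as proxy for Hsp90 function; inhibitor potency where signal loss means Hsp90 inhibition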", "format": "functional, cell-based"}, "[3]": {"experiment": "Artemis endonuclease inhibitor potency, dose response, biochemical, fluorescence intensity (AID 720701)", "format": "functional"}, "[4]": {"target": "Cyclin-dependent kinase 5 (Homo sapiens, UniProt Q00535)", "sequence (Q00535 whole entry)": "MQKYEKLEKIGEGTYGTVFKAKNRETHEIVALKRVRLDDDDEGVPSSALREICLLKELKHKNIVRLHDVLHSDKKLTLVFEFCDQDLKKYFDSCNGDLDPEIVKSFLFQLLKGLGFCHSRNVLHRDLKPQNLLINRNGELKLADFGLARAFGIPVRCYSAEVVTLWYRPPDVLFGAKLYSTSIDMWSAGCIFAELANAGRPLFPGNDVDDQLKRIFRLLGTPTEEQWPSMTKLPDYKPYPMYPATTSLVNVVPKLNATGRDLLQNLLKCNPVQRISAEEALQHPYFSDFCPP", "format": "functional"}, "BJ": {"system": "BJ", "experiment": "cytotoxicity toward Ras-transformed BJeLR fibroblasts, dose response, cell-based, alamar blue fluorescence, cherrypicked samples (AID 2631);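 also: confirmatory dose-response assay in RAS-dependent BJ fibroblasts engineered with TERT, LT and ST, with cytotoxicity read by fluorescence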", "format": "functional", "details": "Homo sapiens"}, "[5]": {"experiment": "cytotoxicity toward DRD oncogenic fibroblasts, dose response, cell-based, non-viral oncogenic, luminescence (AID 1934)", "format": "functional", "details": "Homo sapiens"}, "[6]": {"target": "Mitogen-activated protein kinase kinase kinase kinase 5 (Homo sapiens, UniProt Q9Y4K4)", "sequence (Q9Y4K4 whole entry)": "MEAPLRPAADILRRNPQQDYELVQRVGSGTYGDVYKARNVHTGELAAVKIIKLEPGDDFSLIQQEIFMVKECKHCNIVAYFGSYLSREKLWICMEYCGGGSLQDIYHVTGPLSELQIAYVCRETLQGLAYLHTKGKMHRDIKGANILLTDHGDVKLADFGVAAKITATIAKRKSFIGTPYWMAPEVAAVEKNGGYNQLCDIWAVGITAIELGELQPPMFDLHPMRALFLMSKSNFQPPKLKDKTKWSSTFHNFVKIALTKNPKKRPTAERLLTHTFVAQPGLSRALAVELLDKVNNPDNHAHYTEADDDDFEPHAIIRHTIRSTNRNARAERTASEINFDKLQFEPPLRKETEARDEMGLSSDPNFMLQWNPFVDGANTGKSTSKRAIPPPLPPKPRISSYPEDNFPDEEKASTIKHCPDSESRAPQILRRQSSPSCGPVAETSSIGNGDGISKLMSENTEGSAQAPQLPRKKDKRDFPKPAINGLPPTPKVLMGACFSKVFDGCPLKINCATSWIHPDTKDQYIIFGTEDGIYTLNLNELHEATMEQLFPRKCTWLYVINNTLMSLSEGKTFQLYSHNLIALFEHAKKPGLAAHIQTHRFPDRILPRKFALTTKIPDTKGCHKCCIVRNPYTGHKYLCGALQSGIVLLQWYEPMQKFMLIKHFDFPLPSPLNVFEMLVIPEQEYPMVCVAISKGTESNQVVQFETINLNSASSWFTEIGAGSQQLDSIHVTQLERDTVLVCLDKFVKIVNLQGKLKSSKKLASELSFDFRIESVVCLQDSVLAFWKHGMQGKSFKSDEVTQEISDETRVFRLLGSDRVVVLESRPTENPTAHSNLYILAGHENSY", "format": "functional"}, "[7]": {"target": "Tyrosine-protein kinase SYK (Homo sapiens, UniProt P43405)", "format": "functional"}, "[8]": {"target": "T1, Mannose-6-phosphate isomerase (Homo sapiens, UniProt P34949)", "T1 sequence (P34949 whole entry)": "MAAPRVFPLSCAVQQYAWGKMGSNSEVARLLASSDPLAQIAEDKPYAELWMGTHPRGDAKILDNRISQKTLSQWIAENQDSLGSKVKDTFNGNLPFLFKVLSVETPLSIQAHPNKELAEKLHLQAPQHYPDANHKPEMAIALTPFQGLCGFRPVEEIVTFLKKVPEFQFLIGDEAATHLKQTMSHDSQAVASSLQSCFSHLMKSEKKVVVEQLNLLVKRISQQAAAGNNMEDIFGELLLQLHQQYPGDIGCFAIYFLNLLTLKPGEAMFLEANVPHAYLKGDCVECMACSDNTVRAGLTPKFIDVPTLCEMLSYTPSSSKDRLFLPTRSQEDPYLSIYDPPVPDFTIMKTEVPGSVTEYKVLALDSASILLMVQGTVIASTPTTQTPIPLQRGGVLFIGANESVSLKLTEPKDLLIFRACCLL", "experiment": "human PMI inhibitors, high substrate, primary screen, biochemical, fluorescence intensity, high mannose 6-phosphate (AID 1220)"}, "[9]": {"target": "T2, Long-chain-fatty-acid--AMP ligase FadD28 (Mycobacterium tuberculosis, UniProt P9WQ59)", "T2 sequence (P9WQ59 whole entry)": "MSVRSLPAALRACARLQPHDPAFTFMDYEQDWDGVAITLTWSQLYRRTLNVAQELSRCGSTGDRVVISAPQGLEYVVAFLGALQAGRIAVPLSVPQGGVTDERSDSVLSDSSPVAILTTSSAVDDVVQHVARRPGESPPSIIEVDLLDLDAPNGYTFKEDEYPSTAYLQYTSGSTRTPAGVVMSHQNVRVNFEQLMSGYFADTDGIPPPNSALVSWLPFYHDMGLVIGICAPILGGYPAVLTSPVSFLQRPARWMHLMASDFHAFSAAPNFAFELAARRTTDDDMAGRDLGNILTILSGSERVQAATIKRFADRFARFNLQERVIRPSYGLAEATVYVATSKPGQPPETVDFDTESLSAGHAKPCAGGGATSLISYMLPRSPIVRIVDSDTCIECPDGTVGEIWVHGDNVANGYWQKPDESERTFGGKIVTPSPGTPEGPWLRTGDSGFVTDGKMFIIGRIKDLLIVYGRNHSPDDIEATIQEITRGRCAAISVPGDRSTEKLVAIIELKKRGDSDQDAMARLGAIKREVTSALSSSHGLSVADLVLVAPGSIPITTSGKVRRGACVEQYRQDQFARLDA", "experiment": "Fluorescence polarization aasay to screen for inhibitors that compete for the binding of FadD28 to a bisubstrate Measured in Biochemical System Using Plate Reader - 2147-01_Inhibitor_Dose_CherryPick_Activity.", "format": "functional, Mycobacterium tuberculosis H37Rv"}, "[10]": {"target": "T3, Ubiquitin-conjugating enzyme E2 N (Homo sapiens, UniProt P61088)", "T3 sequence (P61088 whole entry)": "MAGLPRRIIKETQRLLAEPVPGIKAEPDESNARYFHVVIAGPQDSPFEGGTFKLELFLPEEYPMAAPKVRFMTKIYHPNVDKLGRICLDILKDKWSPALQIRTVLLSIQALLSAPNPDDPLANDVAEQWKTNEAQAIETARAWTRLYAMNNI", "format": "functional"}},
  "note": "Activity calls are given as the source filed them.",
  "data": [
    {"smiles": "CC(C)CC(=O)NC(c1cccs1)c1ccc2cccnc2c1O", "note": "(configuration not stated)", "values": [
      {"measurement": "EC50", "setting": "[1]", "result": "1.48 µM (active)"},
      {"measurement": "EC50", "setting": "[2]", "result": "> 150 µM (inactive)"}
    ]},
    {"smiles": "CCOC(=O)c1ccc(NC2=CC(=O)C(=O)c3ccccc32)cc1", "values": [
      {"measurement": "IC50", "setting": "[3]", "result": "2.6 µM (active)"}
    ]},
    {"smiles": "O=C(O)C1CN(Cc2ccc(OCc3ccccc3)cc2Cl)C1", "values": [
      {"measurement": "Ki", "setting": "[4]", "result": "> 3.16 µM (inactive)"}
    ]},
    {"smiles": "OC(CNCCC1C=Nc2ccccc21)Cn1c2ccc(Cl)cc2c2cc(Cl)ccc21", "note": "(configuration not stated)", "values": [
      {"measurement": "EC50", "setting": "BJ", "result": "4.36 µM (inconclusive)"},
      {"measurement": "EC50", "setting": "[5]", "result": "9.1 µM (active)"}
    ]},
    {"smiles": "NC1CCC(Nc2nc(Cl)cc(-c3c[nH]c4ncccc34)n2)CC1", "note": "(configuration not stated)", "values": [
      {"measurement": "Ki", "setting": "[6]", "result": "0.0501 µM (active)"},
      {"measurement": "pKi", "setting": "[6]", "result": 7.3},
      {"measurement": "Ki", "setting": "[7]", "result": "> 1.58 µM (inactive)"}
    ]},
    {"smiles": "Cc1ccccc1-c1cc2c(nn1)-c1ccccc1C2=O", "values": [
      {"measurement": "IC50", "setting": "[8]", "result": "> 50 µM (not active)"}
    ]},
    {"smiles": "CCCCCCCCCCCCCCCC[N+](C)(C)C", "values": [
      {"measurement": "AC50", "setting": "[9]", "result": "12.7 µM (active)"},
      {"measurement": "IC50", "setting": "[10]", "result": "> 20 µM (inactive)"}
    ]}
  ]
}
